Laboratory results reported in the NIST ThermoML archive (doi:10.1021/je400917j).

Assay: xn = mol fraction of the nth substance listed
Settings: 101 kPa, Liquid; for mass density: Vibrating tube method

CCCCCC(C)O (stereo not given) [2-heptanol] + CC(=O)N(C)C
Settings | mass density, 298.15 K [kg/m3] | mass density, 303.15 K [kg/m3] | mass density, 308.15 K [kg/m3] | mass density, 313.15 K [kg/m3] | viscosity, 298.15 K [mPa·s] | viscosity, 303.15 K [mPa·s] | viscosity, 308.15 K [mPa·s] | viscosity, 313.15 K [mPa·s]
x2 = 0 | 813.2 | 809.5 | 805.7 | 801.5 | 5.3 | 4.48 | 3.68 | 2.96
x2 = 0.0806 | 819 | 814.8 | 810.8 | 806.5 | 4.53 | 3.75 | 2.99 | 2.51
x2 = 0.1595 | 825 | 820.7 | 816.5 | 812.1 | 3.77 | 3.17 | 2.54 | 2.13
x2 = 0.2394 | 831.6 | 827.1 | 822.7 | 818.1 | 3.11 | 2.6 | 2.18 | 1.82
x2 = 0.3495 | 841.7 | 837.1 | 832.6 | 827.7 | 2.46 | 2.08 | 1.78 | 1.48
x2 = 0.4393 | 850.8 | 846.2 | 841.5 | 836.6 | 2.07 | 1.775 | 1.54 | 1.28
x2 = 0.559 | 864.7 | 859.9 | 855.1 | 850.2 | 1.65 | 1.436 | 1.26 | 1.06
x2 = 0.6494 | 876.4 | 871.7 | 866.8 | 861.9 | 1.41 | 1.219 | 1.08 | 0.95
x2 = 0.7393 | 889.4 | 884.7 | 879.9 | 875.1 | 1.2 | 1.09 | 0.98 | 0.87
x2 = 0.8494 | 907.5 | 902.8 | 898.1 | 893.4 | 1.06 | 0.97 | 0.88 | 0.8
x2 = 0.9393 | 924.2 | 919.7 | 915.3 | 910.8 | 0.98 | 0.906 | 0.82 | 0.76

CCCCC(C)O (stereo not given) [2-hexanol] + CC(=O)N(C)C
Settings | mass density, 298.15 K [kg/m3] | mass density, 303.15 K [kg/m3] | mass density, 308.15 K [kg/m3] | mass density, 313.15 K [kg/m3] | viscosity, 298.15 K [mPa·s] | viscosity, 303.15 K [mPa·s] | viscosity, 308.15 K [mPa·s] | viscosity, 313.15 K [mPa·s]
x2 = 0 | 810.1 | 806.1 | 802.1 | 798 | 4.1 | 3.41 | 2.82 | 2.22
x2 = 0.0817 | 816.9 | 812.8 | 808.6 | 804.3 | 3.46 | 2.89 | 2.42 | 1.8
x2 = 0.1606 | 824 | 819.7 | 815.4 | 810.9 | 2.87 | 2.41 | 2.05 | 1.52
x2 = 0.2405 | 831.5 | 827.1 | 822.7 | 818.1 | 2.35 | 2 | 1.76 | 1.33
x2 = 0.3506 | 842.9 | 838.3 | 833.8 | 829 | 1.82 | 1.58 | 1.44 | 1.15
x2 = 0.4404 | 852.9 | 848.2 | 843.6 | 838.8 | 1.54 | 1.35 | 1.25 | 1.04
x2 = 0.5601 | 867.5 | 862.8 | 858.1 | 853.3 | 1.29 | 1.16 | 1.06 | 0.92
x2 = 0.6505 | 879.6 | 874.8 | 870.1 | 865.4 | 1.14 | 1.03 | 0.94 | 0.85
x2 = 0.7405 | 892.6 | 887.8 | 883.2 | 878.4 | 1.03 | 0.95 | 0.87 | 0.8
x2 = 0.8504 | 909.9 | 905.2 | 900.7 | 896.2 | 0.97 | 0.9 | 0.82 | 0.77
x2 = 0.9405 | 925.4 | 920.8 | 916.5 | 912.2 | 0.95 | 0.882 | 0.81 | 0.756

CC(=O)N(C)C [N,N-dimethylethanamide] + CC(C)O
Settings | mass density, 298.15 K [kg/m3] | mass density, 303.15 K [kg/m3] | mass density, 308.15 K [kg/m3] | mass density, 313.15 K [kg/m3] | viscosity, 298.15 K [mPa·s] | viscosity, 303.15 K [mPa·s] | viscosity, 308.15 K [mPa·s] | viscosity, 313.15 K [mPa·s]
x1 = 0.081 | 796.1 | 791.8 | 787.4 | 782.8 | 1.68 | 1.53 | 1.39 | 1.22
x1 = 0.16 | 810.3 | 806 | 801.6 | 797 | 1.47 | 1.32 | 1.23 | 1.1
x1 = 0.2399 | 824.2 | 819.9 | 815.4 | 810.9 | 1.33 | 1.19 | 1.11 | 1
x1 = 0.3499 | 842.7 | 838.2 | 833.8 | 829.2 | 1.21 | 1.08 | 1.01 | 0.92
x1 = 0.4399 | 857.1 | 852.7 | 848.2 | 842.9 | 1.13 | 1.03 | 0.96 | 0.87
x1 = 0.5598 | 875.6 | 871.1 | 866.7 | 862.2 | 1.06 | 0.97 | 0.91 | 0.82
x1 = 0.6496 | 888.9 | 884.4 | 880 | 875.6 | 1.02 | 0.94 | 0.88 | 0.8
x1 = 0.7394 | 901.7 | 897.2 | 892.8 | 888.5 | 0.99 | 0.92 | 0.86 | 0.78
x1 = 0.8495 | 916.8 | 912.4 | 908 | 903.7 | 0.97 | 0.9 | 0.84 | 0.76
x1 = 0.9399 | 928.8 | 924.3 | 920 | 915.6 | 0.95 | 0.89 | 0.823 | 0.75
x1 = 1 | 936.5 | 932 | 927.8 | 923.5 | 0.94 | 0.87 | 0.82 | 0.75

CC(=O)N(C)C [N,N-dimethylethanamide] + CCC(C)O
Settings | mass density, 298.15 K [kg/m3] | mass density, 303.15 K [kg/m3] | mass density, 308.15 K [kg/m3] | mass density, 313.15 K [kg/m3] | viscosity, 298.15 K [mPa·s] | viscosity, 303.15 K [mPa·s] | viscosity, 308.15 K [mPa·s] | viscosity, 313.15 K [mPa·s]
x1 = 0.0812 | 813.5 | 808.9 | 804.1 | 799.4 | 2.57 | 2.19 | 1.89 | 1.62
x1 = 0.1602 | 823.6 | 818.7 | 813.6 | 808.6 | 2.16 | 1.88 | 1.65 | 1.44
x1 = 0.2401 | 833.9 | 828.7 | 823.7 | 818.1 | 1.81 | 1.61 | 1.45 | 1.27
x1 = 0.3499 | 848.2 | 842.6 | 837.1 | 831.6 | 1.45 | 1.35 | 1.25 | 1.12
x1 = 0.4355 | 859.4 | 853.8 | 848 | 842.5 | 1.27 | 1.21 | 1.14 | 1.03
x1 = 0.56 | 876 | 870.3 | 864.7 | 859 | 1.14 | 1.09 | 1.02 | 0.93
x1 = 0.65 | 888.1 | 882.5 | 876.8 | 871.4 | 1.08 | 1.03 | 0.95 | 0.88
x1 = 0.7398 | 900.3 | 894.9 | 890.2 | 884.2 | 1.03 | 0.98 | 0.91 | 0.84
x1 = 0.8498 | 915.4 | 910.3 | 906.1 | 900.3 | 0.99 | 0.93 | 0.86 | 0.8
x1 = 0.9389 | 927.8 | 923.1 | 918.9 | 914 | 0.96 | 0.91 | 0.82 | 0.77
x1 = 1 | 936.5 | 932 | 927.8 | 923.5 | 0.94 | 0.87 | 0.8 | 0.75

CCCC(C)O (stereo not given) [pentan-2-ol] + CC(=O)N(C)C
Settings | mass density, 298.15 K [kg/m3] | mass density, 303.15 K [kg/m3] | mass density, 308.15 K [kg/m3] | mass density, 313.15 K [kg/m3] | viscosity, 298.15 K [mPa·s] | viscosity, 303.15 K [mPa·s] | viscosity, 308.15 K [mPa·s] | viscosity, 313.15 K [mPa·s]
x2 = 0 | 805.4 | 800.9 | 796.9 | 792.6 | 3.5 | 2.83 | 2.35 | 1.98
x2 = 0.0811 | 813.4 | 809 | 804.9 | 800.3 | 2.87 | 2.42 | 2.08 | 1.75
x2 = 0.16 | 821.8 | 817.3 | 813 | 808.2 | 2.35 | 2.01 | 1.8 | 1.52
x2 = 0.2399 | 830.7 | 826 | 821.6 | 816.6 | 1.93 | 1.69 | 1.57 | 1.33
x2 = 0.35 | 843.5 | 838.7 | 834.1 | 828.9 | 1.52 | 1.38 | 1.29 | 1.13
x2 = 0.4398 | 854.5 | 849.6 | 845 | 839.6 | 1.3 | 1.21 | 1.14 | 1.01
x2 = 0.5595 | 870.1 | 865 | 860.4 | 854.9 | 1.13 | 1.07 | 0.99 | 0.89
x2 = 0.6499 | 882.5 | 877.5 | 872.8 | 867.4 | 1.05 | 0.99 | 0.91 | 0.83
x2 = 0.7398 | 895.4 | 890.4 | 885.8 | 880.5 | 0.99 | 0.93 | 0.86 | 0.793
x2 = 0.8499 | 912.1 | 907.3 | 902.8 | 897.8 | 0.95 | 0.89 | 0.82 | 0.761
x2 = 0.9398 | 926.5 | 921.9 | 917.5 | 913 | 0.938 | 0.878 | 0.804 | 0.752
